{
  "source": "patent US10806740B2",
  "about": "“Natural combination hormone replacement formulations and therapies” (TherapeuticsMD, Inc., priority 2012, dated 2020)",
  "assay_type_in_all_cases": "physicochemical",
  "key": {"[1]": {"assay": "Estradiol solutions after addition of 7% water", "text": "In addition to determining physical stability of the estradiol solutions over time, it is necessary to determine if the fill material will be stable during the encapsulation process. One way to test these preparations is with the addition of water to the fill mass. […].\nAll CAPMUL® PG8 containing formulations turned hazy on the addition of water."}, "[2]": {"assay": "Progesterone solubility in solvents", "text": ". Thus, MIGLYOL® may be used in embodiments comprising a suspension of progesterone, though MIGLYOL®, standing alone, is not desirable for use in embodiments having fully solubilized progesterone and/or estradiol."}, "[3]": {"assay": "Particle size analysis with Beckman Device (laser diffraction)", "conditions": "Fraunhofer optical model", "procedure": "Particle size may be determined in any suitable manner. For example, a Beckman Coulter LS 13 320 Laser Diffraction Particle Size Analyzer (the “Beckman Device”) may be used to determine particle size. As described above, particle size may be represented by various metrics, for example, through an X50 particle size, and/or X90 particle size, or similar descriptions of particle size.\nFor the purposes of this Example, a particle size analysis is conducted by using the Beckman Device. A sample API comprising micronized progesterone in accordance with various embodiments is provided for analysis.\nApproximately 0.01 g of a sample API in accordance with various embodiments was combined with Coulter 1B and 10 mL of deionized water. Sonication was performed for 15 seconds. The Beckman Device, equipped with a ULM, performed analysis for 90 seconds. The Beckman Device was configured to use the Fraunhofer optical model. […] The Beckman Device also yielded that the mean particle size is 4.975 μm, the median particle size is 4.279 μm, the mode particle size is 6.453 μm, and the standard deviation is 3.956 μm.\nA formulation sample having approximately 200 mg of micronized progesterone and 2 mg of estradiol was dispersed with oil. The Beckman Device, equipped with a MLM, performed analysis for 60 seconds. The Beckman Device was configured to use the Fraunhofer optical model."}},
  "data": [
    {"smiles": "C[C@]12CC[C@@H]3c4ccc(O)cc4CC[C@H]3[C@@H]1CC[C@@H]2O", "note": "[Estradiol, (17β)-estra-1,3,5(10)-triene-3,17-diol]", "values": [
      {"measurement": "Results after addition of 7% water", "setting": "[1]; estradiol 6 mg/g in CAPMUL MCM", "result": "without recrystallization"},
      {"measurement": "Results after addition of 7% water", "setting": "[1]; estradiol 6 mg/g in MIGLYOL 812:CAPMUL PG8 (75:25)", "result": "Precipitated"},
      {"measurement": "Results after addition of 7% water", "setting": "[1]; estradiol 6 mg/g in Polyethylene Glycol 400", "result": "without recrystallization"},
      {"measurement": "Results after addition of 7% water", "setting": "[1]; estradiol 12 mg/g in CAPMUL MCM", "result": "Clear"},
      {"measurement": "Results after addition of 7% water", "setting": "[1]; estradiol 12 mg/g in MIGLYOL 812:CAPMUL PG8 (50:50)", "result": "Hazy"},
      {"measurement": "Results after addition of 7% water", "setting": "[1]; estradiol 12 mg/g in Polyethylene Glycol 400", "result": "clear"},
      {"measurement": "Results after addition of 7% water", "setting": "[1]; estradiol 12 mg/g in TRANSCUTOL:MIGLYOL 812:CAPMUL PG8 (5:47:47)", "result": "Hazy"},
      {"measurement": "Results after addition of 7% water", "setting": "[1]; estradiol 12 mg/g in TRANSCUTOL:MIGLYOL 812:CAPMUL PG8 (5:65:28)", "result": "Hazy"}
    ]},
    {"smiles": "CC(=O)[C@H]1CC[C@H]2[C@@H]3CCC4=CC(=O)CC[C@]4(C)[C@H]3CC[C@]12C", "note": "[Progesterone, pregn-4-ene-3,20-dione]", "values": [
      {"measurement": "Progesterone Solubility", "setting": "[2]; in CAPMUL MCM", "result": 73.4, "unit": "mg/g"},
      {"measurement": "Progesterone Solubility", "setting": "[2]; in CAPMUL MCM:GELUCIRE 44/14 (6:3)", "result": 57.4, "unit": "mg/g"},
      {"measurement": "Progesterone Solubility", "setting": "[2]; in CAPMUL MCM:GELUCIRE 44/14 (6:4)", "result": 57.4, "unit": "mg/g"},
      {"measurement": "Progesterone Solubility", "setting": "[2]; in CAPMUL MCM:GELUCIRE 44/14 (7:3)", "result": 70.5, "unit": "mg/g"},
      {"measurement": "Progesterone Solubility", "setting": "[2]; in CAPMUL MCM:GELUCIRE 44/14 (9:1)", "result": 86.4, "unit": "mg/g"},
      {"measurement": "Progesterone Solubility", "setting": "[2]; in CAPMUL MCM:GELUCIRE 44/14 (9:1), listed as progesterone", "result": "approximately 86 mg/g"},
      {"measurement": "Progesterone Solubility", "setting": "[2]; in CAPMUL MCM, listed as progesterone", "result": "~73", "unit": "mg/g"},
      {"measurement": "Progesterone Solubility", "setting": "[2]; in CAPMUL PG8", "result": 95, "unit": "mg/g"},
      {"measurement": "Progesterone Solubility", "setting": "[2]; in MIGLYOL 812", "result": 27.8, "unit": "mg/g"},
      {"measurement": "X25 particle size", "setting": "[3]", "result": 1.590, "unit": "μm"},
      {"measurement": "X50 particle size", "setting": "[3]", "result": 4.279, "unit": "μm"},
      {"measurement": "X75 particle size", "setting": "[3]", "result": 7.442, "unit": "μm"},
      {"measurement": "mean particle size", "setting": "[3]", "result": 4.975, "unit": "μm"},
      {"measurement": "median particle size", "setting": "[3]", "result": 4.279, "unit": "μm"},
      {"measurement": "mode particle size", "setting": "[3]", "result": 6.453, "unit": "μm"}
    ]}
  ]
}
